Assay results taken from EPA's ToxValDB 9.5.

How the values were obtained:
Oryctolagus sp. = conditions: reproduction developmental; duration: 13 days; oral; F; New Zealand
Rattus norvegicus = conditions: short-term, duration: 28 days, oral, gavage, Sprague-Dawley

In the case of `O=C(O)C(F)(F)C(F)(F)C(F)(F)C(F)(F)C(F)(F)C(F)(F)C(F)(F)F` [Perfluorooctanoic acid], the NOAEL (Oryctolagus sp.) is reported as 50 mg/kg-day, the LOEL (Rattus norvegicus; F, Clinical chemistry_Alanine aminotransferase) is reported as 50 mg/kg-day and the LOEL (Rattus norvegicus; F, Clinical chemistry_Albumin) is reported as 25 mg/kg-day. The LOEL (Rattus norvegicus; F, Clinical chemistry_Albumin/globulin ratio) was 12.5 mg/kg-day, the LOEL (Rattus norvegicus; F, Clinical chemistry_Alkaline phosphatase) was 6.25 mg/kg-day and the NOEL (Rattus norvegicus; F, Clinical chemistry_Aspartate aminotransferase) was 100 mg/kg-day. For the same compound, the LOEL (Rattus norvegicus; F, Clinical chemistry_Cholesterol) was 50 mg/kg-day, the NOEL (Rattus norvegicus; F, Clinical chemistry_Creatinine kinase) was 100 mg/kg-day and the NOEL (Rattus norvegicus; F, Clinical chemistry_Direct bilirubin) was 100 mg/kg-day. It also gave an LOEL (Rattus norvegicus; F, Clinical chemistry_Free thyroxine) of 100 mg/kg-day, an LOEL (Rattus norvegicus; F, Clinical chemistry_Globulin) of 12.5 mg/kg-day and an NOEL (Rattus norvegicus; F, Clinical chemistry_Indirect bilirubin) of 100 mg/kg-day. It also gave an NOEL (Rattus norvegicus; F, Clinical chemistry_Sorbitol dehydrogenase) of 100 mg/kg-day, an NOEL (Rattus norvegicus; F, Clinical chemistry_Testosterone) of 100 mg/kg-day and an LOEL (Rattus norvegicus; F, Clinical chemistry_Thyroid stimulating hormone) of 6.25 mg/kg-day. For the same compound, the NOEL (Rattus norvegicus; F, Clinical chemistry_Total bile acids) was 100 mg/kg-day, the NOEL (Rattus norvegicus; F, Clinical chemistry_Total bilirubin) was 100 mg/kg-day and the NOEL (Rattus norvegicus; F, Clinical chemistry_Total protein) was 100 mg/kg-day. The LOEL (Rattus norvegicus; F, Clinical chemistry_Total thyroxine) was 100 mg/kg-day, the NOEL (Rattus norvegicus; F, Clinical chemistry_Total triiodothyronine) was 100 mg/kg-day and the LOEL (Rattus norvegicus; F, Clinical chemistry_Triglycerides) was 50 mg/kg-day. For the same compound, the LOEL (Rattus norvegicus; F, Gene expression_Acox1) was 12.5 mg/kg-day, the LOEL (Rattus norvegicus; F, Gene expression_Cyp2b1) was 6.25 mg/kg-day and the LOEL (Rattus norvegicus; F, Gene expression_Cyp2b2) was 6.25 mg/kg-day. The LOEL (Rattus norvegicus; F, Gene expression_Cyp4a1) was 25 mg/kg-day, the LOEL (Rattus norvegicus; F, Hematology_Erythrocytes) was 12.5 mg/kg-day and the LOEL (Rattus norvegicus; F, Hematology_Hematocrit) was 12.5 mg/kg-day. It also gave an LOEL (Rattus norvegicus; F, Hematology_Hemoglobin) of 12.5 mg/kg-day, an NOEL (Rattus norvegicus; F, Hematology_Mean corpuscular hemoglobin concentration) of 100 mg/kg-day and an NOEL (Rattus norvegicus; F, Hematology_Mean corpuscular volume) of 100 mg/kg-day. For the same compound, the NOEL (Rattus norvegicus; F, Hematology_Platelets) was 100 mg/kg-day, the NOEL (Rattus norvegicus; F, Hematology_Reticulocytes) was 100 mg/kg-day and the NOEL (Rattus norvegicus; F, Nonneoplastic effects_Bone marrow - Hypocellularity) was 100 mg/kg-day. The NOEL (Rattus norvegicus; F, Nonneoplastic effects_Forestomach - Epithelium, hyperplasia) was 100 mg/kg-day, the NOEL (Rattus norvegicus; F, Nonneoplastic effects_Forestomach - Inflammation, chronic active) was 100 mg/kg-day and the NOEL (Rattus norvegicus; F, Nonneoplastic effects_Kidney - Nephropathy, chronic progressive) was 100 mg/kg-day. It also gave an NOEL (Rattus norvegicus; F, Nonneoplastic effects_Liver - Hepatocyte, Necrosis) of 100 mg/kg-day, an LOEL (Rattus norvegicus; F, Nonneoplastic effects_Liver - Hepatocyte, cytoplasmic alteration) of 25 mg/kg-day and an LOEL (Rattus norvegicus; F, Nonneoplastic effects_Liver - Hepatocyte, hypertrophy) of 100 mg/kg-day. It also gave an NOEL (Rattus norvegicus; F, Nonneoplastic effects_Liver - Hepatocyte, vacuolization cytoplasmic) of 100 mg/kg-day, an NOEL (Rattus norvegicus; F, Nonneoplastic effects_Lymph nodes - Mandibular, atrophy) of 100 mg/kg-day and an NOEL (Rattus norvegicus; F, Nonneoplastic effects_Lymph nodes - Mesenteric, atrophy) of 100 mg/kg-day. It also gave an LOEL (Rattus norvegicus; F, Nonneoplastic effects_Nose - Olfactory epithelium, degeneration) of 50 mg/kg-day, an LOEL (Rattus norvegicus; F, Nonneoplastic effects_Nose - Olfactory epithelium, hyperplasia) of 50 mg/kg-day and an LOEL (Rattus norvegicus; F, Nonneoplastic effects_Nose - Olfactory epithelium, inflammation, suppurative) of 100 mg/kg-day. It also gave an LOEL (Rattus norvegicus; F, Nonneoplastic effects_Nose - Respiratory epithelium, hyperplasia) of 12.5 mg/kg-day, an LOEL (Rattus norvegicus; F, Nonneoplastic effects_Nose - Respiratory epithelium, inflammation, chronic active) of 12.5 mg/kg-day and an NOEL (Rattus norvegicus; F, Nonneoplastic effects_Spleen - Atrophy) of 100 mg/kg-day. The NOEL (Rattus norvegicus; F, Nonneoplastic effects_Spleen - Extramedullary hematopoiesis, increased) was 100 mg/kg-day, the NOEL (Rattus norvegicus; F, Nonneoplastic effects_Thymus - Atrophy) was 100 mg/kg-day and the NOEL (Rattus norvegicus; F, Nonneoplastic effects_Thymus - Lymphocyte, apoptosis) was 100 mg/kg-day. The LOEL (Rattus norvegicus; F, Nonneoplastic effects_Thyroid gland - Follicular cell hypertrophy) was 100 mg/kg-day, the LOEL (Rattus norvegicus; F, Organ weights_Liver - Absolute) was 25 mg/kg-day and the LOEL (Rattus norvegicus; F, Organ weights_Liver - Relative) was 25 mg/kg-day. The NOEL (Rattus norvegicus; F, Organ weights_R. adrenal gland - Absolute) was 100 mg/kg-day, the NOEL (Rattus norvegicus; F, Organ weights_R. adrenal gland - Relative) was 100 mg/kg-day and the LOEL (Rattus norvegicus; F, Organ weights_R. kidney - Absolute) was 100 mg/kg-day. For the same compound, the LOEL (Rattus norvegicus; F, Organ weights_R. kidney - Relative) was 50 mg/kg-day, the NOEL (Rattus norvegicus; F, Organ weights_Spleen - Absolute) was 100 mg/kg-day and the NOEL (Rattus norvegicus; F, Organ weights_Spleen - Relative) was 100 mg/kg-day. The NOEL (Rattus norvegicus; F, Organ weights_Thymus - Absolute) was 100 mg/kg-day, the NOEL (Rattus norvegicus; F, Organ weights_Thymus - Relative) was 100 mg/kg-day and the NOEL (Rattus norvegicus; F, Organ weights_Thyroid gland - Absolute) was 100 mg/kg-day. For the same compound, the NOEL (Rattus norvegicus; F, Organ weights_Thyroid gland - Relative) was 100 mg/kg-day, the LOEL (Rattus norvegicus; F, Reproductive toxicity_Altered estrous cyclicity) was 100 mg/kg-day and the NOEL (Rattus norvegicus; F, Survival rates) was 100 mg/kg-day. The NOEL (Rattus norvegicus; F, body weight) was 100 mg/kg-day, the LOEL (Rattus norvegicus; M, Clinical chemistry_Alanine aminotransferase) was 0.625 mg/kg-day and the NOEL (Rattus norvegicus; M, Clinical chemistry_Albumin) was 10 mg/kg-day. It also gave an LOEL (Rattus norvegicus; M, Clinical chemistry_Albumin/globulin ratio) of 0.625 mg/kg-day, an LOEL (Rattus norvegicus; M, Clinical chemistry_Alkaline phosphatase) of 0.625 mg/kg-day and an LOEL (Rattus norvegicus; M, Clinical chemistry_Aspartate aminotransferase) of 2.5 mg/kg-day. For the same compound, the LOEL (Rattus norvegicus; M, Clinical chemistry_Cholesterol) was 0.625 mg/kg-day, the LOEL (Rattus norvegicus; M, Clinical chemistry_Creatinine kinase) was 2.5 mg/kg-day and the LOEL (Rattus norvegicus; M, Clinical chemistry_Direct bilirubin) was 10 mg/kg-day. For the same compound, the LOEL (Rattus norvegicus; M, Clinical chemistry_Free thyroxine) was 0.625 mg/kg-day, the LOEL (Rattus norvegicus; M, Clinical chemistry_Globulin) was 0.625 mg/kg-day and the NOEL (Rattus norvegicus; M, Clinical chemistry_Sorbitol dehydrogenase) was 10 mg/kg-day. For the same compound, the NOEL (Rattus norvegicus; M, Clinical chemistry_Testosterone) was 10 mg/kg-day, the LOEL (Rattus norvegicus; M, Clinical chemistry_Thyroid stimulating hormone) was 5 mg/kg-day and the LOEL (Rattus norvegicus; M, Clinical chemistry_Total bile acids) was 5 mg/kg-day. It also gave an LOEL (Rattus norvegicus; M, Clinical chemistry_Total protein) of 0.625 mg/kg-day, an LOEL (Rattus norvegicus; M, Clinical chemistry_Total thyroxine) of 0.625 mg/kg-day and an LOEL (Rattus norvegicus; M, Clinical chemistry_Total triiodothyronine) of 0.625 mg/kg-day. It also gave an LOEL (Rattus norvegicus; M, Clinical chemistry_Triglycerides) of 0.625 mg/kg-day, an LOEL (Rattus norvegicus; M, Gene expression_Acox1) of 0.625 mg/kg-day and an LOEL (Rattus norvegicus; M, Gene expression_Acyl-CoA oxidase) of 0.625 mg/kg-day. The LOEL (Rattus norvegicus; M, Gene expression_Cyp2b1) was 0.625 mg/kg-day, the LOEL (Rattus norvegicus; M, Gene expression_Cyp2b2) was 0.625 mg/kg-day and the LOEL (Rattus norvegicus; M, Gene expression_Cyp4a1) was 0.625 mg/kg-day. The LOEL (Rattus norvegicus; M, Hematology_Erythrocytes) was 1.25 mg/kg-day, the LOEL (Rattus norvegicus; M, Hematology_Hematocrit) was 1.25 mg/kg-day and the LOEL (Rattus norvegicus; M, Hematology_Hemoglobin) was 1.25 mg/kg-day. The NOEL (Rattus norvegicus; M, Hematology_Mean corpuscular hemoglobin concentration) was 10 mg/kg-day, the LOEL (Rattus norvegicus; M, Hematology_Mean corpuscular volume) was 10 mg/kg-day and the NOEL (Rattus norvegicus; M, Hematology_Platelets) was 10 mg/kg-day. The LOEL (Rattus norvegicus; M, Hematology_Reticulocytes) was 0.625 mg/kg-day, the LOEL (Rattus norvegicus; M, Nonneoplastic effects_Bone marrow - Hypocellularity) was 10 mg/kg-day and the NOEL (Rattus norvegicus; M, Nonneoplastic effects_Epididymis - Duct, exfoliated germ cell) was 10 mg/kg-day. The NOEL (Rattus norvegicus; M, Nonneoplastic effects_Epididymis - Epithelium, apoptosis) was 10 mg/kg-day, the NOEL (Rattus norvegicus; M, Nonneoplastic effects_Epididymis - Hypospermia) was 10 mg/kg-day and the NOEL (Rattus norvegicus; M, Nonneoplastic effects_Forestomach - Epithelium, hyperplasia) was 10 mg/kg-day. The NOEL (Rattus norvegicus; M, Nonneoplastic effects_Forestomach - Inflammation, chronic active) was 10 mg/kg-day, the NOEL (Rattus norvegicus; M, Nonneoplastic effects_Kidney - Nephropathy, chronic progressive) was 10 mg/kg-day and the NOEL (Rattus norvegicus; M, Nonneoplastic effects_Liver - Hepatocyte, Necrosis) was 10 mg/kg-day. The LOEL (Rattus norvegicus; M, Nonneoplastic effects_Liver - Hepatocyte, cytoplasmic alteration) was 0.625 mg/kg-day, the LOEL (Rattus norvegicus; M, Nonneoplastic effects_Liver - Hepatocyte, hypertrophy) was 1.25 mg/kg-day and the NOEL (Rattus norvegicus; M, Nonneoplastic effects_Liver - Hepatocyte, vacuolization cytoplasmic) was 10 mg/kg-day. For the same compound, the NOEL (Rattus norvegicus; M, Nonneoplastic effects_Lymph nodes - Mandibular, atrophy) was 10 mg/kg-day, the NOEL (Rattus norvegicus; M, Nonneoplastic effects_Lymph nodes - Mesenteric, atrophy) was 10 mg/kg-day and the NOEL (Rattus norvegicus; M, Nonneoplastic effects_Nose - Olfactory epithelium, degeneration) was 10 mg/kg-day. For the same compound, the NOEL (Rattus norvegicus; M, Nonneoplastic effects_Nose - Olfactory epithelium, hyperplasia) was 10 mg/kg-day, the NOEL (Rattus norvegicus; M, Nonneoplastic effects_Nose - Olfactory epithelium, inflammation, suppurative) was 10 mg/kg-day and the LOEL (Rattus norvegicus; M, Nonneoplastic effects_Nose - Respiratory epithelium, hyperplasia) was 0.625 mg/kg-day. For the same compound, the LOEL (Rattus norvegicus; M, Nonneoplastic effects_Nose - Respiratory epithelium, inflammation, chronic active) was 0.625 mg/kg-day, the NOEL (Rattus norvegicus; M, Nonneoplastic effects_Spleen - Atrophy) was 10 mg/kg-day and the NOEL (Rattus norvegicus; M, Nonneoplastic effects_Spleen - Extramedullary hematopoiesis, increased) was 10 mg/kg-day. The NOEL (Rattus norvegicus; M, Nonneoplastic effects_Testes - Germinal epithelium, degeneration) was 10 mg/kg-day, the NOEL (Rattus norvegicus; M, Nonneoplastic effects_Testes - Interstitial cell, atrophy) was 10 mg/kg-day and the NOEL (Rattus norvegicus; M, Nonneoplastic effects_Testes - Seminiferous tubule, spermatid retention) was 10 mg/kg-day. The NOEL (Rattus norvegicus; M, Nonneoplastic effects_Thymus - Atrophy) was 10 mg/kg-day, the NOEL (Rattus norvegicus; M, Nonneoplastic effects_Thymus - Lymphocyte, apoptosis) was 10 mg/kg-day and the LOEL (Rattus norvegicus; M, Nonneoplastic effects_Thyroid gland - Follicular cell hypertrophy) was 10 mg/kg-day. It also gave an LOEL (Rattus norvegicus; M, Organ weights_Liver - Absolute) of 0.625 mg/kg-day, an LOEL (Rattus norvegicus; M, Organ weights_Liver - Relative) of 0.625 mg/kg-day and an NOEL (Rattus norvegicus; M, Organ weights_R. adrenal gland - Absolute) of 10 mg/kg-day. It also gave an NOEL (Rattus norvegicus; M, Organ weights_R. adrenal gland - Relative) of 10 mg/kg-day, an LOEL (Rattus norvegicus; M, Organ weights_R. kidney - Absolute) of 1.25 mg/kg-day and an LOEL (Rattus norvegicus; M, Organ weights_R. kidney - Relative) of 0.625 mg/kg-day. The NOEL (Rattus norvegicus; M, Organ weights_R. testis - Absolute) was 10 mg/kg-day, the LOEL (Rattus norvegicus; M, Organ weights_Spleen - Absolute) was 2.5 mg/kg-day and the NOEL (Rattus norvegicus; M, Organ weights_Spleen - Relative) was 10 mg/kg-day. It also gave an LOEL (Rattus norvegicus; M, Organ weights_Thymus - Absolute) of 10 mg/kg-day, an NOEL (Rattus norvegicus; M, Organ weights_Thymus - Relative) of 10 mg/kg-day and an LOEL (Rattus norvegicus; M, Organ weights_Thyroid gland - Absolute) of 2.5 mg/kg-day. It also gave an LOEL (Rattus norvegicus; M, Organ weights_Thyroid gland - Relative) of 1.25 mg/kg-day, an LOEL (Rattus norvegicus; M, Reproductive toxicity_Altered sperm parameters) of 10 mg/kg-day and an NOEL (Rattus norvegicus; M, Survival rates) of 10 mg/kg-day. For the same compound, the LOEL (Rattus norvegicus; M, body weight) was 5 mg/kg-day.
